We go through one compound from US20120058057A1, “Anti-dandruff Agents” (MERCK PATENT GMBH, priority 2009, published 2012).

One assay has as its system Malassezia furfur. Briefly: Challenge test (Ph.Eur. 5.1.3), germ count over time, Malassezia furfur. The note with it: for total number of microorganisms (linear scale) / total number of microorganisms (log-scale): 1.0% in water. Format: cell-based. Here is the method: The challenge testing procedure consists in challenging a non-contaminated antimicrobial product according to the invention with a prescribed inoculum of suitable microorganisms and storing the inoculated product at a prescribed temperature, e.g. room temperature. The number of organisms surviving in the test products is determined at specified intervals of time.
According to the description given in the European pharmacopea (Ph.Eur.5 Ausgabe, Grundwerk 2005, §5.1.3), the challenge tests are done following the procedure given thereafter.
Production of the Inoculum
A fresh stock culture of the specific micro-organsisms is inoculated on the surface of Agar medium B for bacteria and on the surface of Agar medium C for fungi. The bacteria culture will be incubated until sufficient sporulation (18-24h at 30-35° C.) In order to harvest the bacteria, the surface of the Agar media is washed out with a sterile solution containing sodium chloride (9 g/l) and poured into an adequate vessel. The concentration of germs in the suspension will be adjusted with the same solution to a concentration closed to 10^8 micro-organism/ml. Immediately after that action, a sample of this suspension is taken and the germ concentration in CFU/ml will be measured thanks to the method of membran filtration or counting on Agar plate. This value serves determining the value of the inoculum. The suspension must be used immediately.
Method of Determination of Germ Count
In order to determine the number of micro-organisms in the inoculated preparation (containing also the antimicrobial product according to invention), the same Agar medium as for the preparation of the inoculum will be used.
The aqueous suspension/solution containing 1% of the used ionic liquids (=verum) is inoculated with a suspension of the tests micro-organisms (Malassezia furfur) in such a way that a concentration from 10^5 to 10^6 microorganism/ml of the preparation is reached. The inoculated volume should not be above 1% v/v of the overall test solution. The suspension will be mixed in order to get a good homogenisation.
Water alone (=placebo) is treated in the same way. Antifungicidial activity of the verum will be detected once the survival rate of a microorganism for the verum is significantely lower than for the placebo.
The inoculated preparation is stored away from the daylight at 20-25° C. In order to begin the test, 1 g or 1 ml samples from the tests preparation (containing the inoculated micro-organsisms and the antimicrobial product according to the invention) will be taken at different intervals of time (in our case , 0.2 min, 5 min, 30 min, 1 h, 3 h, 6 h, 24 h) and the number of microorganisms will be measured using the Agar plate or the membrane filtration method. It is important to make sure that any remaining antimicrobial activity to be eliminated by dilution, filtration or specific inactivation.

Assay [1] deals with Staphylococcus epidermidis. Put plainly: Challenge test (Ph.Eur. 5.1.3), germ count over time, Staphylococcus epidermidis. Type of assay: cell-based. As to conditions: 1.0% in water.
Where [2] appears, read: Malassezia furfur, incubation 0 h.
The mark [3] stands for this setting: Malassezia furfur, incubation 1 h.
The mark [4] stands for this setting: Malassezia furfur, incubation 3 h.
Where [5] appears, read: Malassezia furfur, incubation 6 h.
Where [6] appears, read: Malassezia furfur, incubation 24 h.

Molecules are shown by their SMILES.

In the case of `CC[N+](C)(C)CCOC` [compound 1136, N-ethyl-N,N-dimethyl-2-methoxyethylammonium propionate], the “antifungicidial / microbicidal activity against Malassezia furfur (in words)” value in the assay on Malassezia furfur (Malassezia furfur) is given as “unique antifungicidial activity”. Also, the “total number of microorganisms (linear scale)” value in the assay with Malassezia furfur (setting [2]) came to 45000; in the assay with Malassezia furfur (setting [3]), 41000; with Malassezia furfur (setting [4]), 36000; in the assay with Malassezia furfur (setting [5]), 33000; with Malassezia furfur (setting [6]), 100; in assay [1] (incubation 0 h), 210000. The “total number of microorganisms (linear scale)” value in assay [1] (incubation 1 h) is 160000; in assay [1] (incubation 3 h), 180000; in assay [1] (incubation 6 h), 170000; in assay [1] (incubation 24 h), 22000. Also, the “total number of microorganisms (log-scale)” value in the assay on Malassezia furfur (setting [2]) turned out to be 4.7; in the assay with Malassezia furfur (setting [3]), 4.6; in the assay on Malassezia furfur (setting [4]), 4.6; in the assay on Malassezia furfur (setting [5]), 4.5; in the assay with Malassezia furfur (setting [6]) it was 2.0; in assay [1] (incubation 0 h), 5.3. Also, the “total number of microorganisms (log-scale)” value was found to be 5.2 in assay [1] (incubation 1 h), 5.3 in assay [1] (incubation 3 h), 5.2 in assay [1] (incubation 6 h) and 4.3 in assay [1] (incubation 24 h). The “selectivity of growth inhibition: Malassezia furfur versus desired skin microorganisms (e.g. Staphylococcus epidermidis)” value in the assay with Malassezia furfur (in words) was “selectively inhibit the growth of the undesired microorganism Malassezia furfur”.
